Results taken from US20060069132A1, “Azolecarboxamide herbicides” (priority 2004, published 2006).
Like-named read-outs stand apart in the source and are kept apart here.

Columns and labels:
bermudagrass = test: Test C pre-/postemergence herbicide test; type: in vivo, Cynodon dactylon; conditions: for pest or weed control at 125 g/ha: scale 0 (no effect) to 100 (complete control); for pest or weed control at 500 g/ha: Preemergence, read-out: Bermudagrass plant response rating
Excerpt: (§1) Seeds of plant species selected from bermudagrass (Cynodon dactylon (L.) Pers.), Surinam grass (Urochloa decumbens (Staph) R. D. Webster, previously named Brachiaria decumbens Stapf), cocklebur (Xanthium strumarium L.), corn (Zea mays L.), large crabgrass (Digitaria sanguinalis (L.) Scop.), woolly cupgrass (Eriochloa villosa (Thunb.) Kunth), giant foxtail (Setaria faberi Herrm.), goosegrass (Eleusine indica (L.) Gaertn.), johnsongrass (Sorghum halepense (L.) Pers.), kochia (Kochia scoparia (L.) Schrad.), lambsquarters (Chenopodium album L.), morningglory (Ipomoea coccinea L.), eastern black nightshade (Solanum ptycanthum Dunal), yellow nutsedge (Cyperus esculentus L.), pigweed (Amaranthus retroflexus L.), common ragweed (Ambrosia elatior L.), soybean (Glycine max (L.) Merr.), common (oilseed) sunflower (Helianthus annuus L.) and velvetleaf (Abutilon theophrasti Medik.) were planted and treated preemergence with test chemicals formulated in a non-phytotoxic solvent mixture which included a surfactant.
(§2) At the same time, plants selected from these crop and weed species and also winter barley (Hordeum vulgare L.), blackgrass (Alopecurus myosuroides Huds.), canarygrass (Phalaris minor Retz.), chickweed (Stellaria media (L.) Vill.), downy bromegrass (Bromus tectorum L.), green foxtail (Setaria viridis (L.) Beauv.), Italian ryegrass (Lolium multiflorum Lam.), wheat (Triticum aestivum L.), wild oat (Avenafatua L.) and windgrass (Apera spica-venti (L.) Beauv.) were treated with postemergence applications of some of the test chemicals formulated in the same manner. Plants ranged in height from 2 to 18 cm (1- to 4-leaf stage) for postemergence treatments. Plant species in the flooded paddy test consisted of rice (Oryza sativa), smallflower umbrella sedge (Cyperus difformis L.), ducksalad (Heteranthera limosa (Sw.) Willd.) and barnyardgrass (Echinochloa crus-galli (L.) Beauv.) grown to the 2-leaf stage for testing. Treated plants and controls were maintained in a greenhouse for 12 to 14 days, after which time all species were compared to controls and visually evaluated. Plant response ratings, summarized in Table C, are based on a scale of 0 to 100 where 0 is no effect and 100 is complete control. A dash (-) response means no test result.

Surinam grass = test: Test C pre-/postemergence herbicide test; type: in vivo, Urochloa decumbens; conditions: for pest or weed control at 62 g/ha: 62 g ai/ha, preemergence, scale 0 to 100
Excerpt: as §1, §2

cocklebur = test: Test C pre-/postemergence herbicide test; type: in vivo, Xanthium strumarium; conditions: for pest or weed control at 62 g/ha / pest or weed control at 125 g/ha / pest or weed control at 250 g/ha: read-out: Plant response rating, Cocklebur; for pest or weed control at 125 g/ha: scale 0 (no effect) to 100 (complete control)
Excerpt: as §1, §2

goosegrass = test: Test C pre-/postemergence herbicide test; type: in vivo, Eleusine indica; conditions: for pest or weed control at 125 g/ha: scale 0 (no effect) to 100 (complete control)
Excerpt: as §1, §2

johnsongrass = test: Test C pre-/postemergence herbicide test; type: in vivo, Sorghum halepense; conditions: for pest or weed control at 125 g/ha: scale 0 (no effect) to 100 (complete control)
Excerpt: as §1, §2

pigweed = test: Test C pre-/postemergence herbicide test; type: in vivo, Amaranthus retroflexus; conditions: for pest or weed control at 125 g/ha: scale 0 (no effect) to 100 (complete control)
Excerpt: as §1, §2

soybean = test: Test C pre-/postemergence herbicide test; type: in vivo, Glycine max
Excerpt: as §1, §2

[1] = test system: smallflower umbrella sedge; test: Test C flooded paddy test; type: in vivo, Cyperus difformis
ducksalad = test: Test C flooded paddy test; type: in vivo, Heteranthera limosa
[2] = Cynodon dactylon, pre-emergence, 312 h, 62 g ai/ha, preemergence, scale 0 to 100, 0 no effect, 100 complete control, read-out: Plant response rating, Bermudagrass
[3] = Cynodon dactylon, pre-emergence, 312 h, 125 g ai/ha, visual, 12 to 14 days, read-out: Plant response rating, Bermudagrass
[4] = Cynodon dactylon, pre-emergence, 312 h, 500 g ai/ha, scale 0 to 100, 0 no effect, 100 complete control
[5] = Preemergence, 500 g ai/ha, scale 0 to 100, 0 no effect, 100 complete control
[6] = Urochloa decumbens, pre-emergence, 312 h, read-out: Plant response rating, Surinam Grass
[7] = Xanthium strumarium, pre-emergence, 312 h, 62 g ai/ha, preemergence, scale 0 to 100
[8] = Xanthium strumarium, pre-emergence, 312 h, 125 g ai/ha, visual, 12 to 14 days
[9] = Eleusine indica, pre-emergence, 312 h, 62 g ai/ha, preemergence, scale 0 to 100, read-out: Plant response rating, Goosegrass
[10] = Eleusine indica, pre-emergence, 312 h, 125 g ai/ha, visual, 12 to 14 days, read-out: Plant response rating, Goosegrass
[11] = Sorghum halepense, pre-emergence, 62 g ai/ha, preemergence, scale 0 to 100, read-out: Plant response rating, Johnsongrass
[12] = Sorghum halepense, pre-emergence, 125 g ai/ha, visual, 12 to 14 days, read-out: Plant response rating, Johnsongrass
[13] = Amaranthus retroflexus, pre-emergence, 62 g ai/ha, preemergence, scale 0 to 100, read-out: Plant response rating, Pigweed
[14] = Amaranthus retroflexus, pre-emergence, 125 g ai/ha, visual, 12 to 14 days, read-out: Plant response rating, Pigweed
[15] = Glycine max, pre-emergence, 62 g ai/ha, preemergence, scale 0 to 100, read-out: Plant response rating, Soybean
[16] = 250 g ai/ha, scale 0-100, preemergence
[17] = 500 g ai/ha, scale 0 to 100 (0 no effect, 100 complete control), visual, 12 to 14 days, preemergence
[18] = 62 g ai/ha, preemergence, scale 0 to 100
[19] = 250 g ai/ha, scale of 0 to 100, 0 is no effect, 100 is complete control
[20] = 500 g ai/ha, visual rating after 12 to 14 days, scale 0 to 100 (0 no effect, 100 complete control)

## CCn1nc(C(C)(C)C)cc1C(=O)Nc1cc(C(=O)N(C)C)ccn1 [Compound 156, 2-[[[3-(1,1-dimethylethyl)-1-ethyl-1H-pyrazol-5-yl]carbonyl]amino]-N,N-dimethyl-4-pyridinecarboxamide]
bermudagrass; Cynodon dactylon, pre-emergence, 312 h, 16 g ai/ha, scale 0 to 100, 0 no effect, 100 complete control, last section of Table C (species set of preemergence test), read-out: Plant response rating, Bermudagrass
  pest or weed control at 16 g/ha: 0%
bermudagrass; Cynodon dactylon, pre-emergence, 312 h, 31 g ai/ha, scale 0 to 100, 0 no effect, 100 complete control, last section of Table C (species set of preemergence test), read-out: Plant response rating, Bermudagrass
  pest or weed control at 31 g/ha: 60%
bermudagrass; [2]
  pest or weed control at 62 g/ha: 88%
bermudagrass; [3]
  pest or weed control at 125 g/ha: 93%
bermudagrass; Cynodon dactylon, pre-emergence, 312 h, 250 g ai/ha, scale 0 to 100 (0 no effect, 100 complete control), visual, 12 to 14 days, read-out: Plant response rating, Bermudagrass
  pest or weed control at 250 g/ha: 95%
bermudagrass; [4]
  pest or weed control at 500 g/ha: 95%
Surinam grass; [5]
  Surinam Grass plant response rating: 95
Surinam grass; [6]
  pest or weed control at 62 g/ha: 75%
Surinam grass; Urochloa decumbens, pre-emergence, 312 h, 125 g ai/ha, scale 0 (no effect) to 100 (complete control), visual, 12 to 14 days, read-out: Plant response rating, Surinam Grass
  pest or weed control at 125 g/ha: 88%
cocklebur; [7]
  pest or weed control at 62 g/ha: 63%
cocklebur; [8]
  pest or weed control at 125 g/ha: 98%
cocklebur; Xanthium strumarium, pre-emergence, 312 h, 250 g ai/ha, scale 0 to 100 (0 no effect, 100 complete control), visual, 12 to 14 days
  pest or weed control at 250 g/ha: 100%
cocklebur; Xanthium strumarium, pre-emergence, 312 h, Preemergence, 500 g ai/ha, scale 0 to 100, 0 no effect, 100 complete control, read-out: Cocklebur plant response rating
  pest or weed control at 500 g/ha: 100%
goosegrass; [9]
  pest or weed control at 62 g/ha: 83%
goosegrass; [10]
  pest or weed control at 125 g/ha: 90%
goosegrass; [5]
  Goosegrass plant response rating: 95
johnsongrass; [5]
  Johnsongrass plant response rating: 100
johnsongrass; [11]
  pest or weed control at 62 g/ha: 80%
johnsongrass; [12]
  pest or weed control at 125 g/ha: 85%
pigweed; [13]
  pest or weed control at 62 g/ha: 95%
pigweed; [14]
  pest or weed control at 125 g/ha: 98%
pigweed; [5]
  Pigweed plant response rating: 100
soybean; [15]
  plant injury at 62 g/ha: 33%
soybean; Glycine max, pre-emergence, 125 g ai/ha, scale 0 (no effect) to 100 (complete control), visual, 12 to 14 days, read-out: Plant response rating, Soybean
  plant injury at 125 g/ha: 50%
soybean; [5]
  Soybean plant response rating: 100

## CCNC(=O)c1cccc(NC(=O)c2nn(C(C)(C)C)cc2Br)c1 [Compound 221, 4-bromo-1-(1,1-dimethylethyl)-N-[3-[(ethylamino)carbonyl]phenyl]-1H-pyrazole-3-carboxamide]
bermudagrass; [2]
  pest or weed control at 62 g/ha: 0%
bermudagrass; [3]
  pest or weed control at 125 g/ha: 10%
bermudagrass; Cynodon dactylon, pre-emergence, 312 h, 250 g ai/ha, scale 0-100, read-out: Plant response rating, Bermudagrass
  pest or weed control at 250 g/ha: 85%
bermudagrass; [4]
  pest or weed control at 500 g/ha: 85%
Surinam grass; [6]
  pest or weed control at 62 g/ha: 0%
Surinam grass; Urochloa decumbens, pre-emergence, 312 h, 250 g ai/ha, scale 0-100, read-out: Plant response rating, Surinam Grass
  pest or weed control at 250 g/ha: 10%
Surinam grass; Urochloa decumbens, pre-emergence, 312 h, 500 g ai/ha, scale 0 to 100 (0 no effect, 100 complete control), visual, 12 to 14 days, read-out: Plant response rating, Surinam Grass
  pest or weed control at 500 g/ha: 45%
cocklebur; [7]
  pest or weed control at 62 g/ha: 0%
cocklebur; [8]
  pest or weed control at 125 g/ha: 0%
cocklebur; Xanthium strumarium, pre-emergence, 312 h, 250 g ai/ha, scale 0-100
  pest or weed control at 250 g/ha: 0%
goosegrass; [9]
  pest or weed control at 62 g/ha: 0%
goosegrass; [10]
  pest or weed control at 125 g/ha: 0%
goosegrass; Eleusine indica, pre-emergence, 312 h, 250 g ai/ha, scale 0-100, read-out: Plant response rating, Goosegrass
  pest or weed control at 250 g/ha: 0%
goosegrass; Eleusine indica, pre-emergence, 312 h, 500 g ai/ha, scale 0 to 100 (0 no effect, 100 complete control), visual, 12 to 14 days, read-out: Plant response rating, Goosegrass
  pest or weed control at 500 g/ha: 50%
johnsongrass; [11]
  pest or weed control at 62 g/ha: 0%
johnsongrass; [12]
  pest or weed control at 125 g/ha: 0%
johnsongrass; Sorghum halepense, pre-emergence, 250 g ai/ha, scale 0-100, read-out: Plant response rating, Johnsongrass
  pest or weed control at 250 g/ha: 10%
johnsongrass; Sorghum halepense, pre-emergence, 500 g ai/ha, scale 0 to 100 (0 no effect, 100 complete control), visual, 12 to 14 days, read-out: Plant response rating, Johnsongrass
  pest or weed control at 500 g/ha: 80%
pigweed; [13]
  pest or weed control at 62 g/ha: 90%
pigweed; [14]
  pest or weed control at 125 g/ha: 100%
pigweed; Amaranthus retroflexus, pre-emergence, 250 g ai/ha, scale 0-100, read-out: Plant response rating, Pigweed
  pest or weed control at 250 g/ha: 100%
pigweed; Amaranthus retroflexus, pre-emergence, 500 g ai/ha, scale 0 to 100 (0 no effect, 100 complete control), visual, 12 to 14 days, read-out: Plant response rating, Pigweed
  pest or weed control at 500 g/ha: 100%
soybean; [15]
  plant injury at 62 g/ha: 0%
soybean; Glycine max, pre-emergence, 250 g ai/ha, scale 0-100, read-out: Plant response rating, Soybean
  plant injury at 250 g/ha: 0%
soybean; Glycine max, pre-emergence, 500 g ai/ha, scale 0 to 100 (0 no effect, 100 complete control), visual, 12 to 14 days, read-out: Plant response rating, Soybean
  plant injury at 500 g/ha: 20%

## CCc1nn(C(C)C)nc1C(=O)Nc1cccc(C(=O)N2CCCCC2)c1 [Compound 385]
bermudagrass; 62 g ai/ha, preemergence, scale 0 to 100, 0 no effect, 100 complete control
  Plant response rating, Bermudagrass: 55
bermudagrass; 125 g ai/ha, preemergence
  Plant response rating (0 = no effect, 100 = complete control), Bermudagrass: 85
bermudagrass; [16]
  Plant response rating, Bermudagrass: 100
bermudagrass; [17]
  Plant response rating, Bermudagrass: 100
cocklebur; [18]
  Plant response rating, Cocklebur: 0
cocklebur; 125 g ai/ha, preemergence
  Plant response rating (0 = no effect, 100 = complete control), Cocklebur: 0
cocklebur; [16]
  Plant response rating, Cocklebur: 100
cocklebur; [17]
  Plant response rating, Cocklebur: 100
goosegrass; [18]
  Plant response rating, Goosegrass: 70
goosegrass; 125 g ai/ha, preemergence
  Plant response rating (0 = no effect, 100 = complete control), Goosegrass: 80
goosegrass; [16]
  Plant response rating, Goosegrass: 95
goosegrass; [17]
  Plant response rating, Goosegrass: 100
johnsongrass; [18]
  Plant response rating, Johnsongrass: 80
johnsongrass; 125 g ai/ha, preemergence
  Plant response rating (0 = no effect, 100 = complete control), Johnsongrass: 95
johnsongrass; [16]
  Plant response rating, Johnsongrass: 100
johnsongrass; [17]
  Plant response rating, Johnsongrass: 100
pigweed; [18]
  Plant response rating, Pigweed: 80
pigweed; 125 g ai/ha, preemergence
  Plant response rating (0 = no effect, 100 = complete control), Pigweed: 100
pigweed; [16]
  Plant response rating, Pigweed: 100
pigweed; [17]
  Plant response rating, Pigweed: 100
soybean; [18]
  Plant response rating, Soybean: 25
soybean; 125 g ai/ha, preemergence
  Plant response rating (0 = no effect, 100 = complete control), Soybean: 100
soybean; [16]
  Plant response rating, Soybean: 100
soybean; [17]
  Plant response rating, Soybean: 100
[1]; 62 g ai/ha, scale 0 to 100
  Sedge, Umbrella plant response rating: 75
[1]; 125 g ai/ha, scale 0 to 100 (0 no effect, 100 complete control)
  Sedge, Umbrella plant response rating: 75
[1]; [19]
  Sedge, Umbrella plant response rating: 80
[1]; [20]
  Plant response rating, Sedge, Umbrella: 85
ducksalad; 62 g ai/ha, scale 0 to 100
  Ducksalad plant response rating: 0
ducksalad; [19]
  Ducksalad plant response rating: 70
ducksalad; [20]
  Plant response rating, Ducksalad: 75
